Measured values: patent US5955500A (G. D. Searle & Co., priority 1997, dated 1999)
Like-named read-outs stand apart in the source and are kept apart here.

Legend:
[1] = test system: canine heart; details: for AH time / Heart rate / Mean arterial pressure: mean ± SE
Method: Fourteen adult mongrel dogs of either sex weighing between 19 and 25 kg were prepared for chronic electrophysiologic investigation by implanting epicardial electrodes and an indwelling aortic catheter. The dogs were fasted overnight and initially anesthetized with halothane on the day of surgery. After tracheal intubation, anesthesia was maintained with isoflurane and oxygen via positive pressure ventilation to keep end tidal carbon dioxide within the normal range. Muscular relaxation was induced by pancuronium. A right thoracotomy was performed in the fifth intercostal space. Three bipolar electrode pairs were sutured to the epicardial surface of the right atrial appendage and on the right and left ventricular apex (FIG. 5). A bipolar electrode was sutured to the right atrium close to the anatomical region of the sinoatrial node. A bipolar plunge electrode was placed into base of the interventricular septum to record a His bundle electrogram. An indwelling arterial catheter was placed into the aorta through the left femoral artery after surgical exposure of the artery at the inner side of the hind limb. All electrode leads were subcutaneously tunneled and exited through the skin between the scapulae. Incisions were closed in anatomic fashion and standard postoperative methods of analgesia were provided with 0.015 mg/kg of buprenorphine (Buprenex®, Reckitt & Colman, Hull, UK) and two times of 25 mg/kg cefazolin (Cefazolin Sodium®, SoloPak Laboratories, Elk Groove Village, Ill.) and dogs were allowed to recover from surgery for a period of seven days prior to testing.
Electrical signals from the bipolar electrodes, after suitable amplification in a custom built preamplifier (gain 1000), were filtered in a separate custom designed and built common mode rejection amplifier with a bandpass filter of 10-1000 Hz and individually adjusted for signal strength (maximal gain 400). […] Right atrial appendage (RA), right ventricular apex (RVA) and His bundle electrograms (HB) were recorded, simultaneously. […] All measurements of conduction times were made during spontaneous sinus rhythm.
The His bundle electrode (HBE) was advanced into the base of the interatrial septum from the aortic root. The electrode was advanced from a point located just behind and to the right of the origin of the right coronary artery. The HBE was slowly advanced parallel to the aorta, inferiorly and slightly anteriorly until a well discernible His potential was recorded. AV conduction (AH) interval was measured as the time difference (ms) between the onset of the initial rapid deflection in the RA electrogram to the beginning of the His potential in the HB electrogram. His-ventricular (HV) conduction time interval (ms) was measured from the beginning of the His potential (HBE) to the initial deflection of the QRS complex wave (earliest left ventricular activation) in a simultaneously recorded surface ECG lead II.
As an indicator of automaticity, sinus node recovery time (SNRT) was determined by pacing the right atrial appendage (30 s at 180 and 200 beats/min at 2 msec pulse duration; 2×threshold). SNRT was measured from the last pacing spike to the first spontaneous atrial activity on the His bundle electrogram after cessation of pacing (ms).
A timed extrastimulus (S2) was delivered 300 ms after the preceding pacing spike (S1).
Verapamil was dissolved in 5% dextrose and water ([…]).
During the postoperative period, each dog was trained to stand quietly in a sling during electrophysiological monitoring. Prior to measurement, electrical signals in each dog were monitored to verify the absence of spontaneous arrhythmias other-than normal respiratory sinus arrhythmias.
From the resting dog, 5 channel records were obtained at a sampling rate of 1 kHz per channel for 7 min to determine the following conduction intervals: AH, HV, QRS, QT and HR. A corrected QT interval [QTc=QT interval in ms/ (R-R interval in s)^1/2 ] was also calculated.

[2] = test system: isolated working rat heart
[3] = test system: isolated working rat heart; details: R 950 ng/ml
[4] = test system: isolated working rat heart; remark: listed apart in the source

Q: With `COc1ccc(CCN(C)CCC[C@](C#N)(c2ccc(OC)c(OC)c2)C(C)C)cc1OC` [R-verapamil, reference compound] as the molecule, how does the AH time ([1]; 0.1 mg/kg i.v., 0 min) read?
A: 88 ± 5 ms

Q: And the Heart rate ([1]; 0.1 mg/kg i.v., 0 min)?
A: 103 ± 9 beats per min

Q: And the Mean arterial pressure ([1]; 0.1 mg/kg i.v., 0 min)?
A: 94 ± 3 mmHg

Q: What about the AH time ([1]; 0.1 mg/kg i.v., 1 min) of the same molecule?
A: 94 ± 4 ms

Q: And the Heart rate ([1]; 0.1 mg/kg i.v., 1 min)?
A: 95 ± 7 beats per min

Q: What about the Mean arterial pressure ([1]; 0.1 mg/kg i.v., 1 min) of the same molecule?
A: 95 ± 3 mmHg

Q: What about the AH time ([1]; 0.1 mg/kg i.v., 2 min) of the same molecule?
A: 93 ± 5 ms

Q: What about the Heart rate ([1]; 0.1 mg/kg i.v., 2 min) of the same molecule?
A: 98 ± 8 beats per min

Q: What about the Mean arterial pressure ([1]; 0.1 mg/kg i.v., 2 min) of the same molecule?
A: 95 ± 2 mmHg

Q: And the AH time ([1]; 0.1 mg/kg i.v., 3 min)?
A: 93 ± 5 ms

Q: And the Heart rate ([1]; 0.1 mg/kg i.v., 3 min)?
A: 93 ± 7 beats per min

Q: And the Mean arterial pressure ([1]; 0.1 mg/kg i.v., 3 min)?
A: 95 ± 3 mmHg

Q: And the AH time ([1]; 0.1 mg/kg i.v., 4 min)?
A: 95 ± 5 ms

Q: And the Heart rate ([1]; 0.1 mg/kg i.v., 4 min)?
A: 91 ± 8 beats per min

Q: What about the Mean arterial pressure ([1]; 0.1 mg/kg i.v., 4 min) of the same molecule?
A: 95 ± 3 mmHg

Q: What about the AH time ([1]; 0.1 mg/kg i.v., 5 min) of the same molecule?
A: 95 ± 5 ms

Q: What about the Heart rate ([1]; 0.1 mg/kg i.v., 5 min) of the same molecule?
A: 92 ± 8 beats per min

Q: And the Mean arterial pressure ([1]; 0.1 mg/kg i.v., 5 min)?
A: 95 ± 3 mmHg

Q: And the AH time ([1]; 0.2 mg/kg i.v., 0 min)?
A: 93 ± 4 ms

Q: What about the Heart rate ([1]; 0.2 mg/kg i.v., 0 min) of the same molecule?
A: 106 ± 7 beats per min

Q: What about the Mean arterial pressure ([1]; 0.2 mg/kg i.v., 0 min) of the same molecule?
A: 90 ± 3 mmHg

Q: And the AH time ([1]; 0.2 mg/kg i.v., 1 min)?
A: 99 ± 5 ms

Q: What about the Heart rate ([1]; 0.2 mg/kg i.v., 1 min) of the same molecule?
A: 104 ± 8 beats per min

Q: What about the Mean arterial pressure ([1]; 0.2 mg/kg i.v., 1 min) of the same molecule?
A: 97 ± 3 mmHg

Q: And the AH time ([1]; 0.2 mg/kg i.v., 2 min)?
A: 97 ± 5 ms

Q: And the Heart rate ([1]; 0.2 mg/kg i.v., 2 min)?
A: 99 ± 9 beats per min

Q: What about the Mean arterial pressure ([1]; 0.2 mg/kg i.v., 2 min) of the same molecule?
A: 97 ± 3 mmHg

Q: And the AH time ([1]; 0.2 mg/kg i.v., 3 min)?
A: 98 ± 4 ms

Q: What about the Heart rate ([1]; 0.2 mg/kg i.v., 3 min) of the same molecule?
A: 102 ± 9 beats per min

Q: And the Mean arterial pressure ([1]; 0.2 mg/kg i.v., 3 min)?
A: 94 ± 2 mmHg

Q: What about the AH time ([1]; 0.2 mg/kg i.v., 4 min) of the same molecule?
A: 98 ± 4 ms

Q: What about the Heart rate ([1]; 0.2 mg/kg i.v., 4 min) of the same molecule?
A: 96 ± 8 beats per min

Q: And the Mean arterial pressure ([1]; 0.2 mg/kg i.v., 4 min)?
A: 96 ± 2 mmHg

Q: And the AH time ([1]; 0.2 mg/kg i.v., 5 min)?
A: 99 ± 5 ms

Q: And the Heart rate ([1]; 0.2 mg/kg i.v., 5 min)?
A: 95 ± 9 beats per min

Q: And the Mean arterial pressure ([1]; 0.2 mg/kg i.v., 5 min)?
A: 92 ± 2 mmHg

Q: What about the AH time ([1]; 0.4 mg/kg i.v., 0 min) of the same molecule?
A: 97 ± 4 ms

Q: What about the Heart rate ([1]; 0.4 mg/kg i.v., 0 min) of the same molecule?
A: 123 ± 5 beats per min

Q: And the Mean arterial pressure ([1]; 0.4 mg/kg i.v., 0 min)?
A: 86 ± 2 mmHg

Q: And the AH time ([1]; 0.4 mg/kg i.v., 1 min)?
A: 106 ± 5 ms

Q: And the Heart rate ([1]; 0.4 mg/kg i.v., 1 min)?
A: 108 ± 6 beats per min

Q: And the Mean arterial pressure ([1]; 0.4 mg/kg i.v., 1 min)?
A: 94 ± 2 mmHg

Q: What about the AH time ([1]; 0.4 mg/kg i.v., 2 min) of the same molecule?
A: 106 ± 4 ms

Q: And the Heart rate ([1]; 0.4 mg/kg i.v., 2 min)?
A: 109 ± 5 beats per min

Q: What about the Mean arterial pressure ([1]; 0.4 mg/kg i.v., 2 min) of the same molecule?
A: 98 ± 3 mmHg

Q: What about the AH time ([1]; 0.4 mg/kg i.v., 3 min) of the same molecule?
A: 104 ± 4 ms

Q: And the Heart rate ([1]; 0.4 mg/kg i.v., 3 min)?
A: 106 ± 7 beats per min

Q: And the Mean arterial pressure ([1]; 0.4 mg/kg i.v., 3 min)?
A: 97 ± 3 mmHg

Q: What about the AH time ([1]; 0.4 mg/kg i.v., 4 min) of the same molecule?
A: 104 ± 5 ms

Q: What about the Heart rate ([1]; 0.4 mg/kg i.v., 4 min) of the same molecule?
A: 108 ± 7 beats per min

Q: And the Mean arterial pressure ([1]; 0.4 mg/kg i.v., 4 min)?
A: 99 ± 3 mmHg

Q: What about the AH time ([1]; 0.4 mg/kg i.v., 5 min) of the same molecule?
A: 105 ± 5 ms

Q: And the Heart rate ([1]; 0.4 mg/kg i.v., 5 min)?
A: 111 ± 6 beats per min

Q: What about the Mean arterial pressure ([1]; 0.4 mg/kg i.v., 5 min) of the same molecule?
A: 98 ± 3 mmHg

Q: What about the “Interaction between MAP and HR (multiple linear regression), in words” value ([1]; increase in HR against drop in MAP) of the same molecule?
A: least increase in heart rate measured against a drop in blood pressure

Q: And the “Cardiac output (CO), significance vs baseline” value ([2]; R1 (50 ng/ml))?
A: n.s.

Q: And the “Heart rate (HR), significance vs baseline” value ([2]; R1 (50 ng/ml))?
A: n.s.

Q: What about the “Peak systolic pressure (PSP), significance vs baseline” value ([2]; R1 (50 ng/ml)) of the same molecule?
A: n.s.

Q: What about the “Cardiac output (CO), significance vs baseline” value ([2]; R2 (200 ng/ml)) of the same molecule?
A: n.s.

Q: And the “Heart rate (HR), significance vs baseline” value ([2]; R2 (200 ng/ml))?
A: n.s.

Q: And the “Peak systolic pressure (PSP), significance vs baseline” value ([2]; R2 (200 ng/ml))?
A: n.s.

Q: And the “Cardiac output (CO), significance vs baseline” value ([2]; R3 (450 ng/ml))?
A: n.s.

Q: And the “Heart rate (HR), significance vs baseline” value ([2]; R3 (450 ng/ml))?
A: n.s.

Q: What about the “Peak systolic pressure (PSP), significance vs baseline” value ([2]; R3 (450 ng/ml)) of the same molecule?
A: n.s.

Q: What about the “Peak systolic pressure (PSP), significance vs baseline” value ([2]; R4 (950 ng/ml)) of the same molecule?
A: n.s.

Q: What about the “Effect on peak systolic pressure (PSP), in words” value ([2]; increasing levels of R) of the same molecule?
A: remains unaffected by increasing levels of R

Q: And the “Effect on peak systolic pressure (PSP), in words” value [3]?
A: no apparent effect on PSP

Q: What about the “Nature of cardiac effect (inotropic / chronotropic)” value ([3]; S 100 ng/ml) of the same molecule?
A: primarily chronotropic

Q: And the “Peak systolic pressure (PSP), significance vs predrug” value ([3]; S 100 ng/ml, R/S ratio 9.5)?
A: n.s.

Q: What about the “Peak systolic pressure (PSP), significance vs predrug” value ([4]; R alone, R1-R4 (50-950 ng/ml cumulative)) of the same molecule?
A: n.s.

Q: And the “Cardiac output change, in words” value ([4]; R exceeding 200 ng/ml (R2))?
A: Cardiac output appears to increase
